Laboratory results reported in the supplement of paper PMC10331698.
± gives the standard deviation of the averaged measurements.

Tests used:
Assay in all cases: level (log10 ratio to DMSO vehicle control); higher = higher biomarker level / cell amount than vehicle control
[1] = compound: O=C(O)C(F)(F)C(F)(F)C(F)(F)C(F)(F)C(F)(F)C(F)(F)C(F)(F)C(F)(F)C(F)(F)C(F)F [11-H-Perfluoroundecanoic acid]; details: in DMSO
Experimental: (§1)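 BioMAP Diversity Plus panel of 12 human primary cell co-culture systems (3C, 4H, LPS, SAg, BT, BF4T, BE3C, CASM3C, HDF3CGF, KF3CT, MyoF, Mphg). Compounds were added 1 h before stimulation and left for 24 h (MyoF 48 h; BT 72 h for soluble read-outs or 6 d for IgG). Biomarkers were read by ELISA, cytotoxicity by SRB, PBMC viability and proliferation by Alamar Blue. Each well value was divided by the mean of 8 DMSO control wells on the same plate and log10 transformed; duplicate blinded samples were tested at 4 concentrations.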

[2] = compound: O=S(=O)(O)C(F)(F)C(F)(F)C(F)(F)C(F)(F)C(F)(F)C(F)(F)C(F)(F)C(F)(F)C(F)(F)C(F)(F)F [Sodium perfluorodecanesulfonate]; details: in DMSO
Experimental: as §1

[3] = compound: FC(F)(F)C(F)(F)C(F)(F)C(F)(F)C(F)(F)C(F)(F)CC1CO1 [3-(Perfluorohexyl)-1,2-epoxypropane]; details: in DMSO
Experimental: as §1

[4] = compound: C=C(C)C(=O)OCCC(F)(F)C(F)(F)C(F)(F)C(F)(F)C(F)(F)C(F)(F)F [6:2 Fluorotelomer methacrylate]; details: in DMSO
Experimental: as §1

Octafluoroadipamide = compound: NC(=O)C(F)(F)C(F)(F)C(F)(F)C(F)(F)C(N)=O [Octafluoroadipamide]; details: in DMSO
Experimental: as §1

[5] = compound: O=S(=O)(Cl)C(F)(F)C(F)(F)C(F)(F)C(F)(F)C(F)(F)C(F)(F)C(F)(F)C(F)(F)F [Perfluoro-1-octanesulfonyl chloride]; details: in DMSO
Experimental: as §1

Nonafluoropentanamide = compound: NC(=O)C(F)(F)C(F)(F)C(F)(F)C(F)(F)F [Nonafluoropentanamide]; details: in DMSO
Experimental: as §1

[6] = compound: FC(F)(F)C(F)(F)C(F)(F)CC1CO1 [1H,1H-Heptafluorobutyl epoxide]; details: in DMSO
Experimental: as §1

[7] = compound: O=S(=O)(F)C(F)(F)C(F)(F)C(F)(F)C(F)(F)C(F)(F)C(F)(F)C(F)(F)C(F)(F)F [Perfluorooctanesulfonyl fluoride]; details: in DMSO
Experimental: as §1

Heptafluorobutyl iodide = compound: FC(F)(F)C(F)(F)C(F)(F)CI [Heptafluorobutyl iodide]; details: in DMSO
Experimental: as §1

[8] = compound: NC(=O)C(F)(F)C(F)(F)C(F)(F)C(F)F; details: in DMSO
Experimental: as §1

Hexafluoroamylene glycol = compound: OCC(F)(F)C(F)(F)C(F)(F)CO [Hexafluoroamylene glycol]; details: in DMSO
Experimental: as §1

[9] = compound: FC(F)(F)C(F)(F)C(F)(F)C(F)(F)C(F)(F)C(F)(F)C(F)(F)I [1-Iodopentadecafluoroheptane]; details: in DMSO
Experimental: as §1

[10] = compound: O=C(O)C=CC(F)(C(F)(F)F)C(F)(F)F [3-(Perfluoroisopropyl)-2-propenoic acid]; details: in DMSO
Experimental: as §1

[11] = compound: FC(F)(F)C(F)(F)CNCC(F)(F)C(F)(F)F [Bis(1H,1H-perfluoropropyl)amine]; details: in DMSO
Experimental: as §1

[12] = compound: O=S(=O)(O)CCC(F)(F)C(F)(F)C(F)(F)C(F)(F)C(F)(F)C(F)(F)F [6:2 Fluorotelomer sulfonic acid]; details: in DMSO
Experimental: as §1

[13] = compound: C=CC(=O)OCC(F)(F)C(F)(F)C(F)(F)COC(=O)C=C [1H,1H,5H,5H-Perfluoro-1,5-pentanediol diacrylate]; details: 6700 nM; in DMSO
Experimental: as §1

[14] = compound: NS(=O)(=O)C(F)(F)C(F)(F)C(F)(F)C(F)(F)C(F)(F)C(F)(F)F [Perfluorohexanesulfonamide]; details: in DMSO
Experimental: as §1

[15] = compound: COC(=O)C(F)(F)C(F)(F)OC(F)(C(F)(F)F)C(F)(F)OC(F)=C(F)F [Methyl perfluoro(3-(1-ethenyloxypropan-2-yloxy)propanoate)]; details: in DMSO
Experimental: as §1

HDF3CGF:CD106/VCAM-1
level (log10) ([1]; 6700 nM): -0.085 ± 0.051 | level (log10) ([1]; 20000 nM): -0.234 ± 0.0064 | level (log10) ([2]; 1500 nM): -0.104 ± 0.06 | level (log10) ([2]; 4400 nM): -0.164 ± 0.042 | level (log10) ([2]; 13000 nM): -0.0895 ± 0.049 | level (log10) ([2]; 40000 nM): -0.0215 ± 0.0092 | level (log10) ([3]; 6700 nM): -0.001 ± 0.025 | level (log10) ([3]; 20000 nM): -0.01 ± 0.0057 | level (log10) ([3]; 60000 nM): -0.057 ± 0.016 | level (log10) ([4]; 6700 nM): -0.0005 ± 0.018 | level (log10) ([4]; 20000 nM): -0.0085 ± 0.0064 | level (log10) ([4]; 60000 nM): -0.0395 ± 0.03 | level (log10) (Octafluoroadipamide; 6700 nM): -0.0005 ± 0.012 | level (log10) (Octafluoroadipamide; 20000 nM): -0.0165 ± 0.035 | level (log10) (Octafluoroadipamide; 60000 nM): 0.01 ± 0.0099 | level (log10) ([5]; 6700 nM): -0.051 ± 0.04 | level (log10) ([5]; 20000 nM): -0.0065 ± 0.0064 | level (log10) ([5]; 60000 nM): -0.042 ± 0.0085 | level (log10) (Nonafluoropentanamide; 6700 nM): 0.008 ± 0.028 | level (log10) (Nonafluoropentanamide; 20000 nM): 0.0185 ± 0.03 | level (log10) (Nonafluoropentanamide; 60000 nM): -0.0085 ± 0.037 | level (log10) ([6]; 6700 nM): 0.013 ± 0.0099 | level (log10) ([6]; 20000 nM): -0.017 ± 0.0014 | level (log10) ([6]; 60000 nM): -0.04 ± 0.021 | level (log10) ([7]; 6700 nM): -0.011 ± 0.02 | level (log10) ([7]; 20000 nM): -0.071 ± 0.05 | level (log10) ([7]; 60000 nM): -0.083 ± 0.048 | level (log10) (Heptafluorobutyl iodide; 6700 nM): 0.0715 ± 0.03 | level (log10) (Heptafluorobutyl iodide; 20000 nM): 0.0695 ± 0.057 | level (log10) (Heptafluorobutyl iodide; 60000 nM): 0.0585 ± 0.076 | level (log10) ([8]; 6700 nM): -0.0285 ± 0.019 | level (log10) ([8]; 20000 nM): -0.014 ± 0.024 | level (log10) ([8]; 60000 nM): -0.04 ± 0.078 | level (log10) (Hexafluoroamylene glycol; 6700 nM): 0.042 ± 0.083 | level (log10) (Hexafluoroamylene glycol; 20000 nM): 0.0495 ± 0.08 | level (log10) (Hexafluoroamylene glycol; 60000 nM): 0.041 ± 0.055 | level (log10) ([9]; 6700 nM): -0.0165 ± 0.021 | level (log10) ([9]; 20000 nM): -0.046 ± 0.041 | level (log10) ([10]; 6700 nM): -0.0265 ± 0.015 | level (log10) ([10]; 20000 nM): -0.019 ± 0.02 | level (log10) ([10]; 60000 nM): -0.025 ± 0.035 | level (log10) ([11]; 6700 nM): 0.017 ± 0.017 | level (log10) ([11]; 20000 nM): 0.0115 ± 0.013 | level (log10) ([11]; 60000 nM): 0.009 ± 0.0085 | level (log10) ([12]; 6700 nM): 0.034 ± 0.11 | level (log10) ([12]; 20000 nM): 0.034 ± 0.093 | level (log10) ([12]; 60000 nM): 0.0135 ± 0.064 | level (log10) [13]: -0.512 ± 0.033 | level (log10) ([14]; 6700 nM): -0.0505 ± 0.059 | level (log10) ([14]; 20000 nM): -0.034 ± 0.042 | level (log10) ([14]; 60000 nM): -0.205 ± 0.0092 | level (log10) ([15]; 6700 nM): -0.133 ± 0.0057 | level (log10) ([15]; 20000 nM): -0.313 ± 0.0099

KF3CT:TIMP-2
level (log10) ([1]; 6700 nM): -0.001 ± 0.0071 | level (log10) ([1]; 20000 nM): -0.012 ± 0.0071 | level (log10) ([2]; 1500 nM): -0.0205 ± 0.056 | level (log10) ([2]; 4400 nM): -0.015 | level (log10) ([2]; 13000 nM): 0.044 ± 0.02 | level (log10) ([2]; 40000 nM): 0.005 ± 0.034 | level (log10) ([3]; 6700 nM): -0.0095 ± 0.0064 | level (log10) ([3]; 20000 nM): -0.014 ± 0.013 | level (log10) ([3]; 60000 nM): 0.003 ± 0.041 | level (log10) ([4]; 6700 nM): -0.0445 ± 0.0064 | level (log10) ([4]; 20000 nM): 0.008 ± 0.013 | level (log10) ([4]; 60000 nM): 0.022 ± 0.038 | level (log10) (Octafluoroadipamide; 6700 nM): -0.0175 ± 0.00071 | level (log10) (Octafluoroadipamide; 20000 nM): -0.0085 ± 0.018 | level (log10) (Octafluoroadipamide; 60000 nM): 0.0265 ± 0.0021 | level (log10) ([5]; 6700 nM): -0.031 ± 0.0071 | level (log10) ([5]; 20000 nM): -0.0235 ± 0.018 | level (log10) ([5]; 60000 nM): -0.017 ± 0.051 | level (log10) (Nonafluoropentanamide; 6700 nM): -0.0245 ± 0.0092 | level (log10) (Nonafluoropentanamide; 20000 nM): -0.007 ± 0.011 | level (log10) (Nonafluoropentanamide; 60000 nM): 0.011 ± 0.037 | level (log10) ([6]; 6700 nM): 0.039 ± 0.0042 | level (log10) ([6]; 20000 nM): -0.006 ± 0.016 | level (log10) ([6]; 60000 nM): 0.0365 ± 0.06 | level (log10) ([7]; 6700 nM): -0.016 ± 0.016 | level (log10) ([7]; 20000 nM): -0.0245 ± 0.022 | level (log10) ([7]; 60000 nM): -0.019 ± 0.038 | level (log10) (Heptafluorobutyl iodide; 6700 nM): -0.023 ± 0.018 | level (log10) (Heptafluorobutyl iodide; 20000 nM): 0.0135 ± 0.00071 | level (log10) (Heptafluorobutyl iodide; 60000 nM): -0.0125 ± 0.015 | level (log10) ([8]; 6700 nM): -0.006 ± 0.0057 | level (log10) ([8]; 20000 nM): -0.005 ± 0.013 | level (log10) ([8]; 60000 nM): 0.0015 ± 0.019 | level (log10) (Hexafluoroamylene glycol; 6700 nM): -0.0095 ± 0.026 | level (log10) (Hexafluoroamylene glycol; 20000 nM): -0.019 ± 0.0085 | level (log10) (Hexafluoroamylene glycol; 60000 nM): -0.007 ± 0.014 | level (log10) ([9]; 6700 nM): -0.009 ± 0.021 | level (log10) ([9]; 20000 nM): -0.0225 ± 0.00071 | level (log10) ([10]; 6700 nM): -0.01 ± 0.013 | level (log10) ([10]; 20000 nM): 0.007 ± 0.031 | level (log10) ([10]; 60000 nM): 0.0205 ± 0.023 | level (log10) ([11]; 6700 nM): 0.001 ± 0.017 | level (log10) ([11]; 20000 nM): -0.024 ± 0.014 | level (log10) ([11]; 60000 nM): 0.016 ± 0.054 | level (log10) ([12]; 6700 nM): -0.029 ± 0.0085 | level (log10) ([12]; 20000 nM): -0.0035 ± 0.012 | level (log10) ([12]; 60000 nM): 0.0015 ± 0.012 | level (log10) [13]: -0.056 ± 0.021 | level (log10) ([14]; 6700 nM): -0.01 ± 0.02 | level (log10) ([14]; 20000 nM): -0.0115 ± 0.0064 | level (log10) ([14]; 60000 nM): 0.008 ± 0.0057 | level (log10) ([15]; 6700 nM): 0.0105 ± 0.018 | level (log10) ([15]; 20000 nM): 0.0265 ± 0.0092
